Measurements: patent US20100267561A1, “HERBICIDAL PYRIDAZINONE DERIVATIVES” (priority 2007, published 2010)

Columns and labels:
Format in all cases: in vivo
[1] = system: barnyardgrass (Echinochloa crus-galli); test: Test A pre-/postemergence plant response
Method in brief: (§1)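 Ratings run 0–100 (100 = complete control), assigned visually against untreated controls roughly 10 days after treatment in a greenhouse. Compounds, formulated in non-phytotoxic solvent containing surfactant, were applied as a soil-directed preemergence spray and concurrently postemergence to one- to two-leaf plants 2–10 cm tall.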

corn (Zea mays) = test: Test A pre-/postemergence plant response
Method in brief: as §1

[2] = system: giant foxtail (Setaria faberi); test: Test A pre-/postemergence plant response
Method in brief: as §1

[3] = system: large crabgrass (Digitaria sanguinalis); test: Test A pre-/postemergence plant response
Method in brief: as §1

[4] = system: pigweed (Amaranthus retroflexus); test: Test A pre-/postemergence plant response
Method in brief: as §1

[5] = system: wheat (Triticum aestivum); test: Test A pre-/postemergence plant response
Method in brief: as §1

[6] = system: eastern black (E.B.) nightshade (Solanum ptycanthum); test: Test B pre-/postemergence plant response; conditions: Preemergence
Method in brief: (§2)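 Visual scoring from 0 (no effect) to 100 (complete control) against untreated controls was done 13 to 15 days after greenhouse treatment. Chemicals were formulated in a surfactant-containing non-phytotoxic solvent and applied to soil preemergence or to 1- to 4-leaf (2-18 cm) plants postemergence.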

[7] = system: green foxtail (Setaria viridis); test: Test B pre-/postemergence plant response
Method in brief: as §2

[8] = system: barnyardgrass (Echinochloa crus-galli); test: Test B flooded paddy test plant response
Method in brief: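 Rice, umbrella sedge, ducksalad and barnyardgrass at 2-leaf stage; pots flooded to 3 cm, compounds applied into paddy water, depth held throughout. Greenhouse 13 to 15 days, then visual rating vs untreated controls on 0–100 scale (0 no effect, 100 complete control); dash means no test result.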

[9] = Postemergence, 31 g ai/ha, 0 to 100 scale (0 no effect, 100 complete control)
[10] = Postemergence, 125 g ai/ha, 0 to 100 scale, 0 no effect, 100 complete control
[11] = Preemergence, 31 g ai/ha, 0 to 100 scale, 0 is no effect, 100 is complete control
[12] = Preemergence, 125 g ai/ha, 0 to 100 scale (0 no effect, 100 complete control)

SMILES: Cc1nn(C)c(=O)c(-n2nc(-c3ccc(Br)cc3)cc2C)c1O [Compound 81]
- Plant response rating, Barnyardgrass [1, 9]: 90
- Plant response rating, Barnyardgrass [1, 10]: 100
- Plant response rating, Barnyardgrass [1, 11]: 70
- Plant response rating, Barnyardgrass [1, 12]: 100
- Plant response rating, Corn (corn (Zea mays); [9]): 30
- Plant response rating, Corn (corn (Zea mays); [10]): 100
- Plant response rating, Corn (corn (Zea mays); [11]): 30
- Plant response rating, Corn (corn (Zea mays); [12]): 50
- Plant response rating, Foxtail, Giant [2, 9]: 80
- Plant response rating, Foxtail, Giant [2, 10]: 100
- Plant response rating, Foxtail, Giant [2, 11]: 80
- Plant response rating, Foxtail, Giant [2, 12]: 100
- Plant response rating, Crabgrass, Large [3, 9]: 90
- Plant response rating, Crabgrass, Large [3, 10]: 100
- Plant response rating, Crabgrass, Large [3, 11]: 70
- Plant response rating, Crabgrass, Large [3, 12]: 100
- Plant response rating, Pigweed [4, 9]: 0
- Plant response rating, Pigweed [4, 10]: 0
- Plant response rating, Pigweed [4, 11]: 0
- Plant response rating, Pigweed [4, 12]: 0
- Plant response rating, Wheat [5, 9]: 0
- Plant response rating, Wheat [5, 10]: 70
- Plant response rating, Wheat [5, 11]: 20
- Plant response rating, Wheat [5, 12]: 50
- Nightshade, E. B. plant response rating ([6]; 8 g ai/ha, scale 0 to 100 (0 no effect, 100 complete control)): 0
- Plant response rating, Nightshade, E. B. ([6]; 31 g ai/ha, scale 0 to 100 (0 no effect, 100 complete control)): 0
- Plant response rating, Nightshade, E. B. ([6]; 62 g ai/ha, 0 to 100 scale, 0 no effect, 100 complete control): 50
- Nightshade, E. B. plant response rating ([6]; 16 g ai/ha, scale 0 to 100): 0
- Foxtail, Green plant response rating ([7]; 8 g ai/ha, postemergence, 0-100 scale): 85
- Plant response rating, Foxtail, Green ([7]; Postemergence, 16 g ai/ha, scale 0 to 100): 90
- Plant response rating, Foxtail, Green ([7]; Postemergence, 31 g ai/ha, scale 0 to 100): 95
- Plant response rating, Foxtail, Green ([7]; Postemergence, 62 g ai/ha, scale 0 to 100, 0 no effect, 100 complete control): 98
- Foxtail, Green plant response rating ([7]; Preemergence, 8 g ai/ha, scale 0 to 100 (0 no effect, 100 complete control)): 40
- Plant response rating, Foxtail, Green ([7]; Preemergence, 31 g ai/ha, scale 0 to 100 (0 no effect, 100 complete control)): 100
- Plant response rating, Foxtail, Green ([7]; Preemergence, 62 g ai/ha, 0 to 100 scale, 0 no effect, 100 complete control): 100
- Foxtail, Green plant response rating ([7]; Preemergence, 16 g ai/ha, scale 0 to 100): 80
- Plant response rating, Barnyardgrass ([8]; Flood (flooded paddy test), 62 g ai/ha, scale 0 to 100, 0 no effect, 100 complete control): 0
- Plant response rating, Barnyardgrass ([8]; Flood (flooded paddy test), 125 g ai/ha, scale 0 to 100, 0 no effect, 100 complete control): 0
- Plant response rating, Barnyardgrass ([8]; Flood (flooded paddy test), 250 g ai/ha, scale 0 to 100, 0 no effect, 100 complete control): 0
- Plant response rating, Barnyardgrass ([8]; Flood, 31 g ai/ha, scale 0 to 100): 0
